Data published in the supplement of paper PMC10307832.

Assays:
Assay in all cases: relative viability (nuclei count vs DMSO), 5 days (fraction); higher = more cells survive
OSI-027 + Decitabine = compound: COc1cccc2cc(-c3nc([C@H]4CC[C@H](C(=O)O)CC4)n4ncnc(N)c34)[nH]c12 [OSI-027] + Nc1ncn([C@H]2C[C@H](O)[C@@H](CO)O2)c(=O)n1 [Decitabine] (partner 2 µM)
Summary of the method: (§1)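 Lung cancer cell lines in 1536-well plates were dosed by pin tool the day after seeding, either with one drug alone or with a fixed anchor-drug dose plus five library-drug doses (not always all listed) in √10 steps. After 5 days, cells were fixed and their nuclei stained in one step (final 0.05% Triton X-100, 1% formaldehyde, 1 ug/ml Hoechst), then counted on 4× images. Relative viability is the nuclei count in treated wells divided by that in vehicle wells. Values are medians of duplicate plates.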

Vemurafenib + Navitoclax = compound: CCCS(=O)(=O)Nc1ccc(F)c(C(=O)c2c[nH]c3ncc(-c4ccc(Cl)cc4)cc23)c1F [Vemurafenib] + CC1(C)CCC(c2ccc(Cl)cc2)=C(CN2CCN(c3ccc(C(=O)NS(=O)(=O)c4ccc(N[C@H](CCN5CCOCC5)CSc5ccccc5)c(S(=O)(=O)C(F)(F)F)c4)cc3)CC2)C1 [Navitoclax] (partner 0.5 µM)
Summary of the method: as §1

Alpelisib + Vorinostat = compound: Cc1nc(NC(=O)N2CCC[C@H]2C(N)=O)sc1-c1ccnc(C(C)(C)C(F)(F)F)c1 [Alpelisib] + O=C(CCCCCCC(=O)Nc1ccccc1)NO [Vorinostat] (partner 1 µM)
Summary of the method: as §1

Alpelisib + Bortezomib = compound: Cc1nc(NC(=O)N2CCC[C@H]2C(N)=O)sc1-c1ccnc(C(C)(C)C(F)(F)F)c1 [Alpelisib] + CC(C)C[C@H](NC(=O)[C@H](Cc1ccccc1)NC(=O)c1cnccn1)B(O)O [Bortezomib] (partner 0.002 µM)
Summary of the method: as §1

Cell Line	relative viability (OSI-027 + Decitabine; first compound 0.01 µM)	relative viability (OSI-027 + Decitabine; first compound 0.03162 µM)	relative viability (OSI-027 + Decitabine; first compound 0.1 µM)	relative viability (OSI-027 + Decitabine; first compound 0.3162 µM)	relative viability (OSI-027 + Decitabine; first compound 1 µM)	relative viability (Vemurafenib + Navitoclax; first compound 0.03162 µM)	relative viability (Vemurafenib + Navitoclax; first compound 0.3162 µM)	relative viability (Vemurafenib + Navitoclax; first compound 1 µM)	relative viability (Alpelisib + Vorinostat; first compound 0.04 µM)	relative viability (Alpelisib + Vorinostat; first compound 0.1265 µM)	relative viability (Alpelisib + Vorinostat; first compound 0.4 µM)	relative viability (Alpelisib + Vorinostat; first compound 1.265 µM)	relative viability (Alpelisib + Vorinostat; first compound 4 µM)	relative viability (Alpelisib + Bortezomib; first compound 0.04 µM)	relative viability (Alpelisib + Bortezomib; first compound 0.1265 µM)	relative viability (Alpelisib + Bortezomib; first compound 0.4 µM)	relative viability (Alpelisib + Bortezomib; first compound 1.265 µM)	relative viability (Alpelisib + Bortezomib; first compound 4 µM)	relative viability (Vemurafenib + Navitoclax; first compound 0.1 µM)
NCI-H1666	0.719	0.7	0.741	0.624	0.555	0.932	1.06	0.972	0.978	1.1	1.07	0.876	0.727	0.837	0.695	0.882	0.591	0.423	
NCI-H1734	0.559	0.595	0.503	0.265	0.417	0.787	0.784	0.823	0.726	0.686	0.822	0.642	0.375	0.896	0.814	0.943	0.623	0.518	0.77
NCI-H1755	0.75	0.716	0.702	0.654	0.503	0.937	1.05	0.998	0.774	0.71	0.873	0.605	0.632	0.911	0.972	1.06	0.886	0.838	0.953
NCI-H1915	0.25	0.257	0.262	0.26	0.242	0.757	0.745	0.789	0.543	0.543	0.577	0.448	0.509	0.991	1.04	0.947	0.887	0.805	0.795
NCI-H1975	0.392	0.395	0.398	0.434	0.4	0.94	0.952	1.03	0.696	0.674	0.61	0.426	0.402	0.419	0.318	0.355	0.238	0.189	1.11
NCI-H1993	0.53	0.538	0.569	0.432	0.431	0.857	1.25	1.08	0.751	0.815	0.909	0.596	0.64	1.09	1.03	1.02	0.791	0.489	
NCI-H2009	0.418	0.354	0.339	0.36	0.295	1.14	1.01	1.05	0.675	0.711	0.784	0.669	0.658	1.03	0.982	1.24	0.89	0.859	1.13
NCI-H2023	0.202	0.213	0.2	0.207	0.149	0.974	1.03	1.02	0.595	0.634	0.61	0.394	0.348	0.926	0.952	0.942	0.57	0.601	1.03
